In ChEMBL document CHEMBL4476868, “Benzimidazole derivatives and uses thereof” (2017):

Target: Acetyl-coenzyme A synthetase, cytoplasmic (Homo sapiens, UniProt Q9NR19)
Experiment: Inhibition of N-terminal 6x-histidine tagged human ACSS2 expressed in insect cells assessed as reduction in pyrophosphate production using CoA and ATP incubated for 30 mins by pyrophosphatase coupled enzymatic assay

Sequence of Acetyl-coenzyme A synthetase, cytoplasmic (Q9NR19 whole entry): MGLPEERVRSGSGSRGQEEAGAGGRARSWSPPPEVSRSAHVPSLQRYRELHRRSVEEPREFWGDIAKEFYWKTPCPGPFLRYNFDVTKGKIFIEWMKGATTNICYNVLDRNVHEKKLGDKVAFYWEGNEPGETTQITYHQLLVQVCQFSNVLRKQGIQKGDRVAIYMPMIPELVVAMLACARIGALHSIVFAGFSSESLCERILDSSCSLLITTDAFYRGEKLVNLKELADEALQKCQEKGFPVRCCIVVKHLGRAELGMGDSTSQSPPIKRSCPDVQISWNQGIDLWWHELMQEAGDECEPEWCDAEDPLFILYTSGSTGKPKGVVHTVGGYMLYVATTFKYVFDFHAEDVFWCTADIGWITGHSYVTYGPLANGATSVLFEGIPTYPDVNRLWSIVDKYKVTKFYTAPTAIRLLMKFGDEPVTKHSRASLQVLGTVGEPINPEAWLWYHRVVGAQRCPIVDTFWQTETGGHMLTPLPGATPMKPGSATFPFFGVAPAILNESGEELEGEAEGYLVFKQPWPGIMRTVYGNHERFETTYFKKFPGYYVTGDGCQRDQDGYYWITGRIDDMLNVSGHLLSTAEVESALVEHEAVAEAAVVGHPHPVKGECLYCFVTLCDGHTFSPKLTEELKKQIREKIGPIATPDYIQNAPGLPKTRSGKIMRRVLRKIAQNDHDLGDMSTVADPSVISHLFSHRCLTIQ

Structure (SMILES) | IC50 [µM]
CCn1c(C(O)(c2ccccc2)c2ccccc2)nc2ccc(CNC(=O)CO)cc21 | 0.05 to 0.249
CCn1c(C(O)(c2ccccc2)c2ccccc2)nc2ccc(CNC(=O)[C@@H](C)O)cc21 | 0.25 to 1
CCn1c(C(O)(c2ccccc2)c2ccccc2)nc2cc(F)c(C(=O)NC[C@@H](C)O)cc21 | 0.25 to 1
CCn1c(C(O)(c2ccccc2)c2ccccc2)nc2c(OC)cc(C(=O)NC[C@@H](C)O)cc21 | 0.25 to 1
CCn1c(C(O)(c2ccc(C)cc2)c2ncccc2C)nc2ccc(CCCO)cc21 (stereo unspecified) | 0.25 to 1
CCn1c(C(O)(c2ccccc2)c2ccccc2)nc2ccc(S(=O)(=O)CC)cc21 | 0.05 to 0.249
CCn1c(C(O)(c2ccccc2)c2ccccc2)nc2cc(OC)ncc21 | 0.25 to 1
CCn1c(C(O)(c2ccccc2)c2ccccc2)nc2cccc(F)c21 | > 1
CCn1c(C(O)(c2ccccc2)c2ccccc2)nc2ccc(C3(O)CCCC3)cc21 | 0.25 to 1
Cc1cccnc1C(O)(c1ccc(F)cc1)c1nc2ccc(C(=O)NC[C@@H](C)O)cc2n1C (stereo partly specified) | 0.25 to 1
CC(=O)OCC(O)(c1ccccc1)c1nc2ccc(C)cc2n1C (stereo unspecified) | 0.25 to 1
CCn1c(C(O)(c2ccccc2)c2ccccc2)nc2cnc(OCCO)cc21 | 0.25 to 1
CCn1c(C(O)(c2ccccc2)c2ccccc2)nc2c(F)cc(C(=O)NC)cc21 | 0.25 to 1
CCn1c(C(OC)(c2ccccc2)c2ccccc2)nc2ccc(C(=O)NCC(F)(F)C#N)cc21 | 0.25 to 1
CCn1c(C(O)(c2ccccc2)c2ccccc2)nc2ccc(OCCN(C)C)cc21 | > 1
C=CCC1(c2ccc3nc(C(O)(c4ccccc4)c4ccccc4)n(CC)c3c2)COC1 | 0.05 to 0.249
CCn1c(C(O)(c2ccccc2)c2ccccc2)nc2ccc(OCCN(C)C(C)=O)cc21 | > 1
CCn1c(C(O)(c2ccccc2F)c2ccccc2F)nc2ccc(C(=O)NCCO)cc21 | 0.05 to 0.249
C[C@@H](O)CNC(=O)c1ccc2nc(C(O)(c3ccccc3)c3ncccc3F)n(C)c2c1 (stereo partly specified) | 0.25 to 1
CCn1c(C(O)(c2ccc(F)cc2)c2ccc(F)cc2)nc2ccc(C(=O)NC[C@@H](C)O)cc21 | 0.25 to 1
CCn1c(C(O)(c2ccccc2)c2ccccc2)nc2c1cnn2C | 0.25 to 1
CCn1c(C(O)(c2ccccc2F)c2ncccc2C)nc2ccc(CCCO)cc21 (stereo unspecified) | 0.05 to 0.249
CCn1c(C(O)(c2ccc(F)cc2)c2ncccc2F)nc2ccc(CCCO)cc21 (stereo unspecified) | 0.05 to 0.249
CCn1c(C(O)(c2ccccc2)c2ccccc2)nc2cc(F)c(C(=O)NCCO)cc21 | 0.25 to 1

Structure (SMILES) | IC50 [µM]
Cn1c(C(O)(c2ccccc2F)c2ccccc2F)nc2ccc(C(=O)NCCO)cc21 | 0.05 to 0.249
CCn1c(C(O)(c2ccccc2)c2ccc(F)cc2F)nc2ccc(C(=O)NCCO)cc21 (stereo unspecified) | 0.25 to 1
Cn1ccc(NC(=O)c2ccc3nc(C(O)(c4ccccc4F)c4ccccc4F)n(CCO)c3c2)n1 | 0.05 to 0.249
CCn1c(C(O)(c2ccccc2)c2ccccc2)nc2ccc(C(F)(F)C(=O)NC[C@@H](C)O)cc21 | 0.05 to 0.249
C[C@@H](O)CNC(=O)c1ccc2nc(C(c3ccccc3)c3ccccc3)[nH]c2c1 | > 1
CCn1c(C(O)(c2ccc(F)cc2F)c2ccc(F)cc2F)nc2ccc(C(=O)NCCO)cc21 | 0.25 to 1
Cn1cc(NC(=O)c2ccc3nc(C(O)(c4ccccc4F)c4ccccc4F)n(CCO)c3c2)cn1 | 0.05 to 0.249
CCn1c(C(O)(c2ccccc2)c2ccccc2)nc2ccc(CNC(=O)COC)cc21 | 0.05 to 0.249
CCn1c(C(O)(c2ccccc2)c2ccccc2)nc2ccc(CC(CO)CO)cc21 | 0.05 to 0.249
CCn1c(C(O)(c2ccc(F)cc2F)c2ccc(F)cc2F)nc2ccc(C(=O)NC[C@@H](C)O)cc21 | 0.05 to 0.249
CNC(=O)c1ccc2nc(C(O)(c3ccc(F)cc3)c3ccc(F)cc3)n(C)c2c1 | 0.25 to 1
CCn1c(C(O)(c2ccccc2)c2ccccc2)nc2ccc(C(=O)NC[C@@H](C)O)c(OC)c21 | 0.25 to 1
CCn1c(C(O)(c2ccc(F)cc2)c2ccc(F)cc2)nc2ccc(C(=O)NC)cc21 | 0.25 to 1
CNC(=O)c1ccc2nc(C(O)(c3ccccc3F)c3ccccc3F)n(C)c2c1 | 0.05 to 0.249
CCn1c(C(O)(c2ccccc2)c2ccccc2F)nc2ccc(C(=O)NCCO)cc21 (stereo unspecified) | 0.05 to 0.249
CCn1c(C(O)(c2ccccc2)c2ccccc2)nc2cc(F)c(C(=O)NC)cc21 | 0.05 to 0.249
CCn1c(C(O)(c2ccccc2)c2ccccc2)nc2ccc(C)c(F)c21 | 0.25 to 1
CCn1c(C(O)(c2ccccc2)c2ccccc2)nc2ccc(C(O)C(F)(F)F)cc21 (stereo unspecified) | 0.05 to 0.249
CCn1c(C(O)(c2ccccc2)c2ccccc2)nc2ccc(COc3ccccc3)cc21 | 0.25 to 1
CCn1c(C(O)(c2ccccc2)c2ccccc2)nc2ccc(OC(C)C)cc21 | > 1
CCCc1ccc2nc(C(O)(c3ccccc3)c3ccccc3)n(CC)c2c1 | > 1
Cc1cccnc1C(O)(c1ccccc1)c1nc2ccc(C(=O)NC[C@@H](C)O)cc2n1C (stereo partly specified) | 0.25 to 1
C[C@@H](O)CNC(=O)c1ccc2nc(C(O)(c3ccc(F)cc3)c3ccc(F)cc3)n(C)c2c1 | 0.25 to 1
CCn1c(C(O)(c2ccccc2)c2ccccc2)nc2c(Cl)cc(C(=O)NC[C@@H](C)O)cc21 | 0.25 to 1

Second part, the compound after the results:

IC50 [µM] | Structure (SMILES)
> 1 | CCn1c(C(O)(c2ccccc2)c2ccccc2)nc2ccc(C3(O)CCOC3)cc21 (stereo unspecified)
> 1 | CCNC(=O)c1cccc(C(O)(c2ccccc2)c2nc3ccc(Cl)cc3n2C)c1 (stereo unspecified)
0.05 to 0.249 | CCn1c(C(O)(c2ccccc2)c2ccccc2)nc2ccc(C(=O)NC3CCNC3)cc21 (stereo unspecified)
0.25 to 1 | CCN1CCC[C@@H](NC(=O)c2ccc3nc(C(O)(c4ccccc4)c4ccccc4)n(CC)c3c2)C1
> 1 | Cn1c(C(O)(c2ccccc2)c2cccc(C(=O)NCCO)c2)nc2ccc(Cl)cc21 (stereo unspecified)
> 1 | CCn1c(C(O)(c2ccccc2)c2ccccc2)nc2ccc(C(=O)N3CCNCC3)cc21
> 1 | C[C@@H](O)CNC(=O)c1ccc2nc(C(O)(c3ccccc3)c3ccccc3)n(C3CCNCC3)c2c1
0.05 to 0.249 | CCn1c(C(O)(c2ccccc2)c2ccccc2)nc2ccc(C(=O)Nc3ccccc3)cc21
0.25 to 1 | CCn1c(C(O)(c2ccccc2)c2ccccc2)nc2ccc(C3CC3)cc21
0.25 to 1 | CC(C)NC(=O)c1cccc(C(O)(c2ccccc2)c2nc3ccc(Cl)cc3n2C)c1 (stereo unspecified)
0.05 to 0.249 | CCn1c(C(O)(c2ccccc2)c2ccccc2)nc2ccc(CNC(=O)NC)cc21
0.05 to 0.249 | CCn1c(C(O)(c2ccccc2)c2ccccc2)nc2ccc(CCC(=O)NC)cc21
0.25 to 1 | CCn1c(C(O)(c2ccccc2)c2ccccc2)nc2ccc(C(=O)NCCOC)cc21
0.05 to 0.249 | CCN1CC[C@@H](NC(=O)c2ccc3nc(C(O)(c4ccccc4)c4ccccc4)n(CC)c3c2)C1
0.05 to 0.249 | CCn1c(C(O)(c2ccccc2F)c2ccccc2F)nc2ccc(C(=O)N[C@@H]3CCC(=O)N(C)C3)cc21
0.05 to 0.249 | C[C@@H](O)CNC(=O)c1ccc2nc(C(O)(c3ccccc3)c3ccccc3)n(CCF)c2c1
0.05 to 0.249 | CC(O)Cn1c(C(O)(c2ccccc2)c2ccccc2)nc2ccc(C(=O)NC[C@@H](C)O)cc21 (stereo partly specified)
0.05 to 0.249 | CCn1c(C(O)(c2ccccc2)c2ccccc2)nc2ccc(C(=O)NC[C@H](O)CO)cc21
> 1 | CCn1c(C(O)(c2ccccc2)c2ccccc2)nc2ccc(C(=O)N3CCOCC3)cc21
0.05 to 0.249 | CN1C[C@@H](NC(=O)c2ccc3nc(C(O)(c4ccccc4)c4ccccc4)n(C)c3c2)CCC1=O
0.25 to 1 | C[C@@H](O)CNC(=O)c1ccc2nc(C(O)(c3ccccc3)c3ccccc3)n(CC(O)CO)c2c1 (stereo partly specified)
0.05 to 0.249 | CCn1c(C(O)(c2ccccc2)c2ccccc2)nc2ccc(C(=O)NOCCO)cc21
0.05 to 0.249 | Cn1c(C(O)(c2ccccc2)c2ccccc2)nc2ccc(S(C)(=O)=O)cc21
0.05 to 0.249 | CCn1c(C(O)(c2ccccc2)c2ccccc2)nc2ccc(C(=O)NC3(C#N)CC3)cc21

IC50 [µM] | Structure (SMILES)
> 1 | CCn1ccc(NC(=O)c2ccc3nc(C(O)(c4ccccc4)c4ccccc4)n(CC)c3c2)n1
> 1 | CNC(=O)c1cccc(C(O)(c2ccccc2)c2nc3ccc(Cl)cc3n2C)c1 (stereo unspecified)
0.25 to 1 | CCN1CC[C@H](NC(=O)c2ccc3nc(C(O)(c4ccccc4)c4ccccc4)n(CC)c3c2)C1
0.25 to 1 | CCn1c(C(O)(c2ccccc2)c2ccccc2)nc2ccc(C(=O)NC(C)C)cc21
0.05 to 0.249 | CCONC(=O)c1ccc2nc(C(O)(c3ccccc3)c3ccccc3)n(CC)c2c1
0.05 to 0.249 | CN1C[C@H](NC(=O)c2ccc3nc(C(O)(c4ccccc4)c4ccccc4)n(C)c3c2)CCC1=O
0.25 to 1 | CCN1CCC[C@H](NC(=O)c2ccc3nc(C(O)(c4ccccc4)c4ccccc4)n(CC)c3c2)C1
0.05 to 0.249 | CCn1c(C(O)(c2ccccc2)c2ccccc2)nc2ccc(C(=O)NC)c(F)c21
0.05 to 0.249 | CCn1c(C(O)(c2ccccc2)c2ccccc2)nc2ccc(C(=O)N[C@H]3CCC(=O)N(C)C3)cc21
0.05 to 0.249 | CCn1c(C(O)(c2ccccc2)c2ccccc2)nc2ccc(C(=O)NC[C@@H](O)CO)cc21
> 1 | CN(C)C(=O)c1cccc(C(O)(c2ccccc2)c2nc3ccc(Cl)cc3n2C)c1 (stereo unspecified)
0.25 to 1 | CCn1c(C(O)(c2ccccc2)c2ccccc2)nc2ccc(C(=O)NCCO)cc21
0.25 to 1 | CCn1c(C(O)(c2ccccc2)c2ccccc2)nc2ccc(OCC(=O)NC)cc21
> 1 | C[C@@H](O)CNC(=O)c1ccc2nc(C(O)(c3ccccc3)c3ccccc3)n(C3CCOCC3)c2c1
0.25 to 1 | CCn1c(C(O)(c2ccccc2)c2ccccc2)nc2ccc(C(=O)NC3CC(F)(F)C3)cc21
0.25 to 1 | CCn1c(C(O)(c2ccccc2)c2ccccc2)nc2ccc(C(=O)NC(C)CO)cc21 (stereo unspecified)
0.05 to 0.249 | CCn1c(C(O)(c2ccccc2)c2ccccc2)nc2ccc(C(=O)Nc3cnn(CCO)c3)cc21
0.25 to 1 | CCn1c(C(O)(c2ccccc2)c2ccccc2)nc2ccc(C(=O)NC3CCC3)cc21
0.25 to 1 | Cc1ccc2c(c1)nc(C(O)(c1ccccc1)c1ccccc1)n2C
0.25 to 1 | CCn1c(C(O)(c2ccccc2)c2ccccc2)nc2ccc(C(=O)NC3CCN(C)CC3)cc21
> 1 | Cc1cccc2c1nc(C(O)(c1ccccc1)c1ccccc1)n2C
0.25 to 1 | CCn1c(C(O)(c2ccccc2)c2ccccc2)nc2ccc(C(=O)N[C@@H]3CCC(=O)N(C)C3)cc21
> 1 | CCn1c(C(O)(c2ccccc2)c2ccccc2)nc2ccc(C(=O)N3CCC(O)CC3)cc21
> 1 | CCn1c(C(O)(c2ccccc2)c2ccccc2)nc2ccc(C(=O)N3CCC(N)C3)cc21 (stereo unspecified)
